Experimental findings from ChEMBL document CHEMBL1909046, “DrugMatrix in vitro pharmacology data” are described below.

In the first assay the target is Sodium-dependent dopamine transporter (Homo sapiens, UniProt Q01959). The experiment in a line: DRUGMATRIX: Dopamine Transporter radioligand binding (ligand: [125I] RTI-55). Particulars: cho-k1; Not Active = under 50% inhibition at 10 µM. Type of assay: cell membranes, CHO-K1, Membrane.
Chain of Sodium-dependent dopamine transporter (Q01959 whole entry): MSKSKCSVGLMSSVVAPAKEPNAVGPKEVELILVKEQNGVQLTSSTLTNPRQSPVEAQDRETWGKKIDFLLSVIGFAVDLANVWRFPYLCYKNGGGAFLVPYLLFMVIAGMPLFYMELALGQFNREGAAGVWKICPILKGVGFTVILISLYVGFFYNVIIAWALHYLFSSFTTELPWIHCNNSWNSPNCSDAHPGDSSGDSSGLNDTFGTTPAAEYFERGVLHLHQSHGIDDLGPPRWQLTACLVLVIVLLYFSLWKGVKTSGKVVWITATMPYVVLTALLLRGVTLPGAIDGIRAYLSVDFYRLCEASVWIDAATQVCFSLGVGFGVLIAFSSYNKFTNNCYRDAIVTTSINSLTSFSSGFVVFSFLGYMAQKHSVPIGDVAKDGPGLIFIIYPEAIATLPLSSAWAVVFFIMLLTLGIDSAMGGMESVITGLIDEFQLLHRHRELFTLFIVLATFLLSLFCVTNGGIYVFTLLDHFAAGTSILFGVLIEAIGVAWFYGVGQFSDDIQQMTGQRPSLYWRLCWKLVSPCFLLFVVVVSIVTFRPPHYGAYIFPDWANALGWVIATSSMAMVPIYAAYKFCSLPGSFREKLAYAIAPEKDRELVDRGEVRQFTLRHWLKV
Turning to `CC(C)n1c(/C=C/C(O)CC(O)CC(=O)O)c(-c2ccc(F)cc2)c2ccccc21` (centres undefined) [FLUVASTATIN], the IC50 result is on record as “Not Active”.

With `CCCCOC(=O)c1ccc(N)cc1` [BUTAMBEN], the IC50 entry is reported as “Not Active”.

For `Cc1ccccc1N1CCN(CCc2nnc3n2CCCC3)CC1` [DAPIPRAZOLE], the IC50 entry is on record as “Not Active”.

Regarding `COCc1c(C(C)C)nc(C(C)C)c(/C=C/[C@@H](O)C[C@@H](O)CC(=O)O)c1-c1ccc(F)cc1` [CERIVASTATIN], the IC50 entry was “Not Active”.

For the molecule CISPLATIN, the IC50 result is reported as “Not Active” and the Ki entry is reported as “Not Active”.

For `CN1CCC[C@H]1c1cccnc1` [NICOTINE], the IC50 entry was “Not Active”.

The target of another assay is T1, Alpha-2A adrenergic receptor (Homo sapiens, UniProt P08913). Note: in other assays of this panel Not Active means under 50% inhibition at 10 µM.
T1 sequence (P08913 whole entry): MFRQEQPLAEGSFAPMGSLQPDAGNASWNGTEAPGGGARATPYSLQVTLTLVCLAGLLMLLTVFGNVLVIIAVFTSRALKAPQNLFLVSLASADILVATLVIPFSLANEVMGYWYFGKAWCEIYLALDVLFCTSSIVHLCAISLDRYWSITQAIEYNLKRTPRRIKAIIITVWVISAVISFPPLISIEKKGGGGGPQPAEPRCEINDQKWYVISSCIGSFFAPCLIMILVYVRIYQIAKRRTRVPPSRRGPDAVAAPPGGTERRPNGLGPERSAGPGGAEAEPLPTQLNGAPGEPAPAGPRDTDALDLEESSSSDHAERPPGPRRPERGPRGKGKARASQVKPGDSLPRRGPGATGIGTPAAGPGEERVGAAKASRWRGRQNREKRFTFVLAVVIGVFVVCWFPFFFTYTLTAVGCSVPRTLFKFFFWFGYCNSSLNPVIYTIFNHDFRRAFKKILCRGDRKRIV
It counts as cell membranes, Sf9, Membrane. The conditions noted are these: sf9.
`CC(C)n1c(/C=C/C(O)CC(O)CC(=O)O)c(-c2ccc(F)cc2)c2ccccc21` (centres undefined) [FLUVASTATIN]: the IC50 result is on record as “Not Active”.

With `CCCCOC(=O)c1ccc(N)cc1` [BUTAMBEN], the IC50 entry is “Not Active”.

As for `Cc1ccccc1N1CCN(CCc2nnc3n2CCCC3)CC1` [DAPIPRAZOLE], the IC50 result is on record as “Not Active”.

With `COCc1c(C(C)C)nc(C(C)C)c(/C=C/[C@@H](O)C[C@@H](O)CC(=O)O)c1-c1ccc(F)cc1` [CERIVASTATIN], the IC50 entry was “Not Active”.

As to CISPLATIN, the IC50 entry is “Not Active” and the Ki entry is given as “Not Active”.

As to `CN1CCC[C@H]1c1cccnc1` [NICOTINE], the IC50 result was “Not Active”.

A further assay deals with T2, Receptor-type tyrosine-protein phosphatase C (Homo sapiens, UniProt P08575).
T2 sequence (P08575 whole entry): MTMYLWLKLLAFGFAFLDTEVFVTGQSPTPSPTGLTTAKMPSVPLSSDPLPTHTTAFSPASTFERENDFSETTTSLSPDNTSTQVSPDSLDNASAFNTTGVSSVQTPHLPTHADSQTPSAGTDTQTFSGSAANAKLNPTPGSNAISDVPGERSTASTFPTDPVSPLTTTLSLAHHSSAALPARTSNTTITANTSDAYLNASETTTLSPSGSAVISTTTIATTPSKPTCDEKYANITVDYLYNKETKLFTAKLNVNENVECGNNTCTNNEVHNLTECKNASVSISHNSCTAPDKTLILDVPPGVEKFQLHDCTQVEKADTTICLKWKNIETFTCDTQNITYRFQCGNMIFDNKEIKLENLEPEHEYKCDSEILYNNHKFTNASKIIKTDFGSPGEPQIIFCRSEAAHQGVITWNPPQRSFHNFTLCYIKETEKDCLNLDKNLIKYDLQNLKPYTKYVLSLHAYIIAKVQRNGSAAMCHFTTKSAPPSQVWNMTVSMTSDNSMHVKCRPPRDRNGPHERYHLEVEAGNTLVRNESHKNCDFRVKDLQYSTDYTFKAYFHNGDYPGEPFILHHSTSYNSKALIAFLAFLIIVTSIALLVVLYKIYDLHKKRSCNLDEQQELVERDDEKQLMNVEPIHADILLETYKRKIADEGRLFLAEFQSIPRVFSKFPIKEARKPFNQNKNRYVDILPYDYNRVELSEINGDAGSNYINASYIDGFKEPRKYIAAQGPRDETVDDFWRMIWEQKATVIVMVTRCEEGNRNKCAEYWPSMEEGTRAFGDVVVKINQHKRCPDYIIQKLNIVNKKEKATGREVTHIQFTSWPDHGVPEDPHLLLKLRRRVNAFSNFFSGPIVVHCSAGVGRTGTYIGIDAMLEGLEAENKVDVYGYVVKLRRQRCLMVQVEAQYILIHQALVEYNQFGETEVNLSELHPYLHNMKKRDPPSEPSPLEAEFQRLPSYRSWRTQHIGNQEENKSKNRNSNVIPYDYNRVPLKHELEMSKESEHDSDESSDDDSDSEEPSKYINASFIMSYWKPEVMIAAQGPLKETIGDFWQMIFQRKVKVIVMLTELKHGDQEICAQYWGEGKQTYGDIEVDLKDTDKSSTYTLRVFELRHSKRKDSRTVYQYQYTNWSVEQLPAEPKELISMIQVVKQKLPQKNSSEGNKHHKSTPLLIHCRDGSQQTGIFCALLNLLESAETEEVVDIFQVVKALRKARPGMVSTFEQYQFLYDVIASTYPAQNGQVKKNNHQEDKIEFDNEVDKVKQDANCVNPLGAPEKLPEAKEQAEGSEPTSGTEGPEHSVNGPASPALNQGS
Also noted: species or system Escherichia coli.
Conditions: not given
Consider `CC(C)n1c(/C=C/C(O)CC(O)CC(=O)O)c(-c2ccc(F)cc2)c2ccccc21` (centres undefined) [FLUVASTATIN], for which the IC50 result is “Not Active”.

As to `CCCCOC(=O)c1ccc(N)cc1` [BUTAMBEN], the IC50 result is “Not Active”.

Turning to `Cc1ccccc1N1CCN(CCc2nnc3n2CCCC3)CC1` [DAPIPRAZOLE], the IC50 result is reported as “Not Active”.

`COCc1c(C(C)C)nc(C(C)C)c(/C=C/[C@@H](O)C[C@@H](O)CC(=O)O)c1-c1ccc(F)cc1` [CERIVASTATIN]: the IC50 result is on record as “Not Active”.

Consider CISPLATIN, for which the IC50 result is recorded as “Not Active” and the Ki result was “Not Active”.

As to `CN1CCC[C@H]1c1cccnc1` [NICOTINE], the IC50 entry is “Not Active”.

For the next assay, the target named is T3, Muscarinic acetylcholine receptor M5 (Homo sapiens, UniProt P08912). Note: in other assays of this panel Not Active means under 50% inhibition at 10 µM.
T3 sequence (P08912 whole entry): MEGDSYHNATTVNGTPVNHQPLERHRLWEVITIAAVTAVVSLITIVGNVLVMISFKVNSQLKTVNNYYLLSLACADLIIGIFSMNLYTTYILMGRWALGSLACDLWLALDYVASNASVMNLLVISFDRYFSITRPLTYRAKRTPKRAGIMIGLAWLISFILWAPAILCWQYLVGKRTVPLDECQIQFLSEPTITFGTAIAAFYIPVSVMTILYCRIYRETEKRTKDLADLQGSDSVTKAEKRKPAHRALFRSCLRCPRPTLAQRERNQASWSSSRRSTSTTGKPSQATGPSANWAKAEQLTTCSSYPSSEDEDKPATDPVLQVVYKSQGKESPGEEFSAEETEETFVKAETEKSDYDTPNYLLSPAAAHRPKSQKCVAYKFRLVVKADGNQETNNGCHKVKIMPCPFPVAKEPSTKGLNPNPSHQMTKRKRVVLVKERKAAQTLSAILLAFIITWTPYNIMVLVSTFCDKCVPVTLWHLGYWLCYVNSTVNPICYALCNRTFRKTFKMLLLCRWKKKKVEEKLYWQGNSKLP
It counts as cell membranes, CHO-K1, Membrane. The conditions noted are these: cho-k1.
Regarding `CC(C)n1c(/C=C/C(O)CC(O)CC(=O)O)c(-c2ccc(F)cc2)c2ccccc21` (centres undefined) [FLUVASTATIN], the IC50 entry was “Not Active”.

As for `CCCCOC(=O)c1ccc(N)cc1` [BUTAMBEN], the IC50 entry is “Not Active”.

Turning to `Cc1ccccc1N1CCN(CCc2nnc3n2CCCC3)CC1` [DAPIPRAZOLE], the IC50 result is “Not Active”.

For `COCc1c(C(C)C)nc(C(C)C)c(/C=C/[C@@H](O)C[C@@H](O)CC(=O)O)c1-c1ccc(F)cc1` [CERIVASTATIN], the IC50 entry is on record as “Not Active”.

For CISPLATIN, the IC50 result was “Not Active” and the Ki entry is given as “Not Active”.

Take `CN1CCC[C@H]1c1cccnc1` [NICOTINE]: the IC50 result is given as “Not Active”.

In a further assay the target is Aldo-keto reductase family 1 member B1 (Rattus norvegicus, UniProt P07943). It counts as tissue-based, Lens of camera-type eye.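 Note: inhibition of aldose reductase enzyme activity, measured with DL-glyceraldehyde as the substrate; in other assays of this panel Not Active means under 50% inhibition at 10 µM.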
Conditions: not given
As for `CC(C)n1c(/C=C/C(O)CC(O)CC(=O)O)c(-c2ccc(F)cc2)c2ccccc21` (centres undefined) [FLUVASTATIN], the IC50 result is “Not Active”.

With `CCCCOC(=O)c1ccc(N)cc1` [BUTAMBEN], the IC50 entry is on record as “Not Active”.

Regarding `Cc1ccccc1N1CCN(CCc2nnc3n2CCCC3)CC1` [DAPIPRAZOLE], the IC50 result was “Not Active”.

For `COCc1c(C(C)C)nc(C(C)C)c(/C=C/[C@@H](O)C[C@@H](O)CC(=O)O)c1-c1ccc(F)cc1` [CERIVASTATIN], the IC50 result is on record as “Not Active”.

Consider CISPLATIN, for which the IC50 entry is “Not Active” and the Ki entry is listed as “Not Active”.

As to `CN1CCC[C@H]1c1cccnc1` [NICOTINE], the IC50 result was “Not Active”.

A further assay deals with T4, Type-2 angiotensin II receptor (Homo sapiens, UniProt P50052).
T4 sequence (P50052 whole entry): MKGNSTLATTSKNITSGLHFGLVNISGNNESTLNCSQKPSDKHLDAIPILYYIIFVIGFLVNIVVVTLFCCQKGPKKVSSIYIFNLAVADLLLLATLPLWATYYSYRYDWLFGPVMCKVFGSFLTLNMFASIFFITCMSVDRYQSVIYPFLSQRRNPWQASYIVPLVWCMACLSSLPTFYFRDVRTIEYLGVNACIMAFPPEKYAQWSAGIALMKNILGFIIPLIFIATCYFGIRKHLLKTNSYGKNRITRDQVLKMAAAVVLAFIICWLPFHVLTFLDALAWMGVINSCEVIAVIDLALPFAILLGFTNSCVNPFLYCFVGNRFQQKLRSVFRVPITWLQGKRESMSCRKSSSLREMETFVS
Type of assay: cell-based. The conditions noted are these: cho-k1.
Take `CC(C)n1c(/C=C/C(O)CC(O)CC(=O)O)c(-c2ccc(F)cc2)c2ccccc21` (centres undefined) [FLUVASTATIN]: the IC50 result is recorded as “Not Active”.

For `CCCCOC(=O)c1ccc(N)cc1` [BUTAMBEN], the IC50 entry is listed as “Not Active”.

For `Cc1ccccc1N1CCN(CCc2nnc3n2CCCC3)CC1` [DAPIPRAZOLE], the IC50 entry is given as “Not Active”.

As for `COCc1c(C(C)C)nc(C(C)C)c(/C=C/[C@@H](O)C[C@@H](O)CC(=O)O)c1-c1ccc(F)cc1` [CERIVASTATIN], the IC50 entry is “Not Active”.

As for CISPLATIN, the IC50 result was “Not Active” and the Ki entry is “Not Active”.

Turning to `CN1CCC[C@H]1c1cccnc1` [NICOTINE], the IC50 entry is given as “Not Active”.

System in a further assay: not listed separately
The experiment in a line: DRUGMATRIX: Sodium/nucleoside co-transporter radioligand binding (ligand: nitrobenzylthioinosine). It counts as cell membranes, Cavia porcellus, Dunkin-Hartley, Cerebral cortex, Membrane. The conditions noted are these: Not Active = under 50% inhibition at 10 µM.
As for `CC(C)n1c(/C=C/C(O)CC(O)CC(=O)O)c(-c2ccc(F)cc2)c2ccccc21` (centres undefined) [FLUVASTATIN], the IC50 result was “Not Active” and the Ki result is “Not Active”.

For the molecule `CCCCOC(=O)c1ccc(N)cc1` [BUTAMBEN], the IC50 result is reported as “Not Active” and the Ki entry is reported as “Not Active”.

In the case of `Cc1ccccc1N1CCN(CCc2nnc3n2CCCC3)CC1` [DAPIPRAZOLE], the IC50 result was “Not Active” and the Ki result was “Not Active”.

As to `COCc1c(C(C)C)nc(C(C)C)c(/C=C/[C@@H](O)C[C@@H](O)CC(=O)O)c1-c1ccc(F)cc1` [CERIVASTATIN], the IC50 entry was “Not Active” and the Ki entry is recorded as “Not Active”.

As to CISPLATIN, the IC50 result is given as “Not Active” and the Ki entry was “Not Active”.

For the molecule `CN1CCC[C@H]1c1cccnc1` [NICOTINE], the IC50 entry is reported as “Not Active” and the Ki result is given as “Not Active”.
